Consider three molecules from patent US8529949B2, “Pharmaceutical tablets of crystalline type II aripiprazole” (Synthon BV, priority 2005, dated 2013).

Where two headings read alike, the source gives them in different places.

For series [1] the following is noted: cited from earlier work.
Series [2] is described as follows: Hygroscopicity (water uptake) of crystalline aripiprazole forms. Format: physicochemical. Conditions: small particle population (d90 8-50 microns), unmilled.

`O=C1CCc2ccc(OCCCCN3CCN(c4cccc(Cl)c4Cl)CC3)cc2N1` [Anhydrous Form B, 7-[4-[4-(2,3-dichlorophenyl)-1-piperazinyl]butoxy]-3,4-dihydrocarbostyril]: the “water uptake (hygroscopicity)” value in series [1] (in 24 hours, per WO 03/26659) is listed as “less than 0.4%”. As to `O=C1CCc2ccc(OCCCCN3CCN(c4cccc(Cl)c4Cl)CC3)cc2N1` [aripiprazole Type II, 7-[4-[4-(2,3-dichlorophenyl)-1-piperazinyl]butoxy]-3,4-dihydrocarbostyril], in series [2], the hygroscopicity result is given as “not significantly hygroscopic and/or is non-hygroscopic”. Regarding `O=C1CCc2ccc(OCCCCN3CCN(c4cccc(Cl)c4Cl)CC3)cc2N1` [Type I aripiprazole, 7-[4-[4-(2,3-dichlorophenyl)-1-piperazinyl]butoxy]-3,4-dihydrocarbostyril], the hygroscopicity result in series [1] (as taught by WO 03/26659) was “significantly hygroscopic”.
